This is an account of results in publication PMC10925993, “6-Aryl-4-cycloamino-1,3,5-triazine-2-amines: synthesis, antileukemic activity, and 3D-QSAR modelling” (RSC Advances, 2024).

One may read the melting point as the temperature, or range, at which the solid turns liquid. In general, viability refers to a read-out of living cells in per cent, often relative to untreated cells.

The test system of data set [1] is Jurkat T cells. The data set is described as follows: Inhibition of Jurkat T cell growth (GI50), MTS assay. The class given is cell-based. The note with it: Homo sapiens. Here is the method:
These compounds were selected for further testing to estimate their 50% growth inhibition (GI50) value. Standard antileukemic drugs mercaptopurine, methotrexate and cytarabine were chosen as positive controls.
(§1) An MTS (3-(4,5-dimethylthiazol-2-yl)-5-(3-carboxymethoxyphenyl)-2-(4-sulfophenyl)-2H-tetrazolium inner salt) assay[20] was used to assess the leukemic cell viability. Jurkat T cells (human leukemic T cell, clone E6-1) from American Type Culture Collection (ATCC) were cultured in RPMI-1640 medium (Nacalai Tesque, Japan) supplemented with 10% v/v fetal bovine serum (FBS) (Biosera, France). The cells were maintained at 37 °C in a humidified 5% CO2 incubator (Thermo Fisher, USA). A total of 2 × 10^3 cells per 100 μL cell culture media were seeded into each well of a 96-well plate and incubated for 24 h. Then, tested compounds or reference drugs [6-mercaptopurine (Merck Millipore, Germany), methotrexate (Merck Millipore, Germany) and cytarabine (Merck Millipore, Germany)] were added, followed by incubation for 72 h. After that, a mixture of MTS (Sigma Aldrich, USA) and phenazine methosulfate (PMS) (Nacalai Tesque, Japan) were added to each well, followed by another incubation for 1 h to 4 h at 37 °C. The absorbance in each well was measured at 490 nm using a microplate reader (Tecan NanoQuant Infinite M200 Pro, Austria). The percentage of cell viability was estimated by comparing absorbance in wells with the treated and untreated (vehicle control) cells using the following formula: ODtreated/ODuntreated × 100%. All experiments were performed in triplicate and repeated in three independent experiments. The GI50 values were calculated using sigmoidal concentration-response curves generated by the GraphPad Prism 8 program.[21]

The subject of data set [2] is Jurkat T cells. Description: Antiproliferative screening at 10 μM, MTS assay. The class given is cell-based, human. Particulars: for viability at 10 µM: Homo sapiens, Jurkat T cells, 72 h after treatment, MTS, mean of three independent experiments, read-out: Cell viability (%); for Antiproliferative activity against Jurkat T cells (in words): screening concentration 10 μM, 72 h. The protocol:
The Jurkat T cell line was chosen for its reliability as a model for chemotherapeutic studies, particularly in T-cell leukemia.[13]
as §1, with “Jurkat T cells (human leukemic T cell, clone E6-1) from American Type Culture Collection (ATCC) were cultured in RPMI-1640 medium (Nacalai Tesque, Japan) supplemented with 10% v/v fetal bovine serum (FBS) (Biosera, France). The cells were maintained at 37 °C in a humidified 5% CO2 incubator (Thermo Fisher, USA).” left out, “After that, a mixture of MTS (Sigma Aldrich, USA) and phenazine methosulfate (PMS) (Nacalai Tesque, Japan) were added to each well, followed by another incubation for 1 h to 4 h at 37 °C.” left out
On the technique in general: Formazan colour is commonly taken as a measure of viable cells.

The mark [3] stands for this setting: GI50 against Jurkat T cells converted to negative logarithmic scale, read-out: Experimental pGI50 (converted).
The mark [4] stands for this setting: concentration required to inhibit Jurkat T cell growth by 50%, 72 h, MTS, mean of three independent experiments, read-out: GI50 ± SEM.

Where two headings read alike, the source gives them in different places.

In turn, `Nc1nc(-c2cccc(OCc3ccccc3)c2)nc(N2CCCCC2)n1` [9{2,14}, 6-[3-(Benzyloxy)phenyl]-4-piperidino-1,3,5-triazine-2-amine] came in with a melting point of 157 to 158 °C. In the data set with Jurkat T cells [1] (setting [3]), the GI50 was 7.76 µM. For the same molecule, the GI50 with Jurkat T cells [1] (setting [4]) was 7.68 ± 0.11 µM. Besides, in the data set on Jurkat T cells [2], the viability at 10 µM was found to be 8% and the “Antiproliferative activity against Jurkat T cells (in words)” value (“Antiproliferative activity” below) is recorded as “effectively inhibited Jurkat T cell growth”.

As for `CC1CCN(c2nc(N)nc(-c3ccc(C(F)(F)F)cc3)n2)CC1` [9{3,11}, 6-[4-(Trifluoromethyl)phenyl]-4-(4-methylpiperidino)-1,3,5-triazine-2-amine], the melting point lay in the range of 170 to 171 °C. The GI50 in the data set with Jurkat T cells [1] (setting [3]) is 4.47 µM. For the same molecule, the GI50 in the data set on Jurkat T cells [1] (setting [4]) was 4.51 ± 0.15 µM. In addition, in the data set with Jurkat T cells [2], the viability at 10 µM was found to be 11% and the “Antiproliferative activity” value was “effectively inhibited Jurkat T cell growth”.

Consider `CC1CCN(c2nc(N)nc(-c3ccc(OC(F)(F)F)cc3)n2)CC1` [9{3,12}, 6-[4-(Trifluoromethoxy)phenyl]-4-(4-methylpiperidino)-1,3,5-triazine-2-amine], for which the melting point lay within 152 to 153 °C. Also, in the data set on Jurkat T cells [1] (setting [3]), the GI50 is 3.24 µM. Further, the GI50 in the data set on Jurkat T cells [1] (setting [4]) was found to be 3.23 ± 0.88 µM. Moreover, in the data set with Jurkat T cells [2], the viability at 10 µM was determined as 5% and the “Antiproliferative activity” value is “effectively inhibited Jurkat T cell growth”.

Molecule `CC1CCN(c2nc(N)nc(-c3cccs3)n2)CC1` [9{3,18}, 4-(4-Methylpiperidino)-6-(2-thienyl)-1,3,5-triazine-2-amine] gave a melting point of 155 to 156 °C. In the data set with Jurkat T cells [1] (setting [3]), the GI50 was 28.2 µM. Further, the GI50 in the data set with Jurkat T cells [1] (setting [4]) was 28.2 ± 1.03 µM. Moreover, the viability at 10 µM in the data set on Jurkat T cells [2] amounted to 35%.

`Nc1nc(-c2ccc(Cl)cc2)nc(N2CCc3ccccc3C2)n1` [9{6,4}, 6-(4-Chlorophenyl)-4-(3,4-dihydroisoquinolin-2(1H)-yl)-1,3,5-triazine-2-amine] yielded a melting point of 183 to 184 °C. In the data set with Jurkat T cells [1] (setting [3]), the GI50 is 3.31 µM. Moreover, the GI50 in the data set on Jurkat T cells [1] (setting [4]) is 3.3 ± 0.65 µM. Besides, in the data set on Jurkat T cells [2], the viability at 10 µM worked out at 2%.

Take `Cc1cccc(-c2nc(N)nc(N3CCc4ccccc4C3)n2)c1` [9{6,5}, 6-(3-Methylphenyl)-4-(3,4-dihydroisoquinolin-2(1H)-yl)-1,3,5-triazine-2-amine]: the melting point was in the range of 145 to 146 °C. Moreover, in the data set on Jurkat T cells [1] (setting [3]), the GI50 was 1.15 µM. In the data set with Jurkat T cells [1] (setting [4]), the GI50 was found to be 1.14 ± 0.13 µM. Moreover, in the data set with Jurkat T cells [2], the viability at 10 µM is 2%.

`Cc1ccc(-c2nc(N)nc(N3CCc4ccccc4C3)n2)cc1` [9{6,6}, 6-(4-Methylphenyl)-4-(3,4-dihydroisoquinolin-2(1H)-yl)-1,3,5-triazine-2-amine] registered a melting point of 166 to 167 °C. In addition, the GI50 in the data set with Jurkat T cells [1] (setting [3]) was 1.78 µM. The GI50 in the data set on Jurkat T cells [1] (setting [4]) worked out at 1.79 ± 0.58 µM. Further, in the data set with Jurkat T cells [2], the viability at 10 µM stood at 4%.

In the case of `CC(C)(C)c1ccc(-c2nc(N)nc(N3CCc4ccccc4C3)n2)cc1` [9{6,7}, 6-[4-(tert-Butyl)phenyl]-4-(3,4-dihydroisoquinolin-2(1H)-yl)-1,3,5-triazine-2-amine], the melting point is 162 to 164 °C. For the same molecule, the GI50 in the data set with Jurkat T cells [1] (setting [3]) is 2.45 µM. The GI50 in the data set on Jurkat T cells [1] (setting [4]) was determined as 2.43 ± 0.57 µM. The viability at 10 µM with Jurkat T cells [2] was 1%.

Regarding `COc1ccc(-c2nc(N)nc(N3CCc4ccccc4C3)n2)cc1` [9{6,9}, 6-(4-Methoxyphenyl)-4-(3,4-dihydroisoquinolin-2(1H)-yl)-1,3,5-triazine-2-amine], the melting point lay in the range of 165 to 166 °C. Moreover, the GI50 in the data set on Jurkat T cells [1] (setting [3]) is 29.5 µM. The GI50 in the data set on Jurkat T cells [1] (setting [4]) turned out to be 29.6 ± 2.2 µM. In the data set with Jurkat T cells [2], the viability at 10 µM is 14%.

In turn, `Nc1nc(-c2ccc(C(F)(F)F)cc2)nc(N2CCc3ccccc3C2)n1` [9{6,11}, 6-[4-(Trifluoromethyl)phenyl]-4-(3,4-dihydroisoquinolin-2(1H)-yl)-1,3,5-triazine-2-amine] registered a melting point of 181 to 182 °C. For the same molecule, in the data set with Jurkat T cells [1] (setting [3]), the GI50 is 3.24 µM. Moreover, in the data set with Jurkat T cells [1] (setting [4]), the GI50 came to 3.23 ± 0.16 µM. Besides, the viability at 10 µM in the data set on Jurkat T cells [2] amounted to 3%.

`Nc1nc(-c2ccc(OC(F)(F)F)cc2)nc(N2CCc3ccccc3C2)n1` [9{6,12}, 6-[4-(Trifluoromethoxy)phenyl]-4-(3,4-dihydroisoquinolin-2(1H)-yl)-1,3,5-triazine-2-amine] had a melting point of 119 to 120 °C. Further, in the data set with Jurkat T cells [1] (setting [3]), the GI50 was 1.17 µM. For the same molecule, the GI50 in the data set on Jurkat T cells [1] (setting [4]) amounted to 1.18 ± 0.22 µM. The viability at 10 µM with Jurkat T cells [2] is 3%.

In turn, `Nc1nc(-c2cccc(Oc3ccccc3)c2)nc(N2CCc3ccccc3C2)n1` [9{6,13}, 4-(3,4-Dihydroisoquinolin-2(1H)-yl)-6-(3-phenoxyphenyl)-1,3,5-triazine-2-amine] showed a melting point of 128 to 129 °C. For the same molecule, the GI50 in the data set with Jurkat T cells [1] (setting [3]) was 1.55 µM. The GI50 in the data set on Jurkat T cells [1] (setting [4]) worked out at 1.54 ± 0.66 µM. Further, the viability at 10 µM with Jurkat T cells [2] is 4%.

For the molecule `Nc1nc(-c2cccc(OCc3ccccc3)c2)nc(N2CCc3ccccc3C2)n1` [9{6,14}, 6-(3-(Benzyloxy)phenyl)-4-(3,4-dihydroisoquinolin-2(1H)-yl)-1,3,5-triazine-2-amine], the melting point was 143 to 144 °C. In addition, the GI50 in the data set on Jurkat T cells [1] (setting [3]) is 6.61 µM. In the data set on Jurkat T cells [1] (setting [4]), the GI50 worked out at 6.54 ± 0.34 µM. Moreover, the viability at 10 µM in the data set on Jurkat T cells [2] was 23%.

As for `COc1ccc(-c2nc(N)nc(N3CCc4ccccc4C3)n2)cc1OC` [9{6,16}, 6-(3,4-Dimethoxyphenyl)-4-(3,4-dihydroisoquinolin-2(1H)-yl)-1,3,5-triazin-2-amine], the melting point lay in the range of 159 to 160 °C. For the same molecule, the GI50 in the data set on Jurkat T cells [1] (setting [3]) was 11.7 µM. Besides, the GI50 in the data set on Jurkat T cells [1] (setting [4]) was found to be 11.6 ± 2.12 µM. For the same molecule, in the data set on Jurkat T cells [2], the viability at 10 µM is 23%.

The molecule `Nc1nc(-c2ccc(F)cc2)nc(N2CCc3ccccc32)n1` [9{7,3}, 6-(4-Fluorophenyl)-4-(indolin-1-yl)-1,3,5-triazine-2-amine] gave a melting point of 195 to 196 °C. For the same molecule, in the data set on Jurkat T cells [1] (setting [3]), the GI50 is 1.91 µM. The GI50 in the data set with Jurkat T cells [1] (setting [4]) stood at 1.89 ± 0.48 µM. Besides, the viability at 10 µM in the data set on Jurkat T cells [2] was 35%.

As for `CN(C)c1ccc(-c2nc(N)nc(N3CCc4ccccc43)n2)cc1` [9{7,8}, 6-[4-(N,N-Dimethylamino)phenyl]-4-(indolin-1-yl)-1,3,5-triazine-2-amine], the melting point lay in the range of 226 to 227 °C. Also, the GI50 in the data set on Jurkat T cells [1] (setting [3]) is 2.14 µM. For the same molecule, the GI50 in the data set with Jurkat T cells [1] (setting [4]) was 2.12 ± 0.97 µM. The viability at 10 µM in the data set on Jurkat T cells [2] came out at 30%.

For `Nc1nc(-c2ccc(OCc3ccccc3)cc2)nc(N2CCc3ccccc32)n1` [9{7,15}, 6-(4-(Benzyloxy)phenyl)-4-(indolin-1-yl)-1,3,5-triazine-2-amine], the melting point was in the range of 188 to 189 °C. In addition, in the data set with Jurkat T cells [1] (setting [3]), the GI50 was 22.9 µM. Moreover, the GI50 with Jurkat T cells [1] (setting [4]) was 23.07 ± 0.08 µM. Besides, in the data set on Jurkat T cells [2], the viability at 10 µM stood at 32%.

Consider `COc1cc(-c2nc(N)nc(N3CCc4ccccc43)n2)cc(OC)c1OC` [9{7,17}, 6-(3,4,5-Trimethoxyphenyl)-4-(indolin-1-yl)-1,3,5-triazine-2-amine], for which the melting point lay within 199 to 200 °C. In the data set with Jurkat T cells [1] (setting [3]), the GI50 is 6.76 µM. In addition, the GI50 in the data set on Jurkat T cells [1] (setting [4]) stood at 6.73 ± 0.43 µM. Besides, in the data set with Jurkat T cells [2], the viability at 10 µM was determined as 10%.

With `Nc1nc(-c2cccs2)nc(N2CCc3ccccc32)n1` [9{7,18}, 4-(Indolin-1-yl)-6-(2-thienyl)-1,3,5-triazine-2-amine], the melting point lay within 163 to 164 °C. Besides, the GI50 with Jurkat T cells [1] (setting [3]) is 6.03 µM. Moreover, the GI50 in the data set on Jurkat T cells [1] (setting [4]) came to 6.03 ± 0.64 µM. Besides, the viability at 10 µM in the data set with Jurkat T cells [2] stood at 20%.
